Measurements reported in patent publication US20250332143A1, “COMPOSITION COMPRISING ALOX5 INHIBITOR FOR PREVENTING OR TREATING SARCOPENIA” (PLUTO Inc., priority 2022, published 2025).

Tests used:
[1] = system: Dex-treated C2C12 myotubes; experiment: Dex-induced myotube atrophy, myosin heavy chain immunostaining, myotube diameter; assay type: cell-based, mouse; conditions: 10 μM Dex 24 h
Protocol: C2C12 murine skeletal muscle myoblasts were obtained from Koram Biotech (Republic of Korea). The cells were maintained in DMEM growth medium supplemented with 10% FBS, 1% penicillin, and streptomycin. When myoblasts proliferated to approximately 90%, they were differentiated into muscle fibers by treating them with DMEM differentiation medium supplemented with 2% HS, 1% penicillin, and streptomycin for 96 hours. Differentiated muscle fibers were treated with 10 μM Dex for 24 hours to induce sarcopenia. To evaluate the degree of differentiation of muscle cells, differentiating myoblasts were treated with the corresponding compound in differentiation medium for 24 or 48 hours.
Muscle fibers were stained using immunochemical staining using myosin heavy chain antibody. Specifically, the muscle fibers were rinsed three times with PBS and then fixed with a 3.7% formaldehyde solution. After rinsing with PBS, a transparency process was performed with 0.2% TritonX-100 solution, and additional rinsing was performed with PBS. They were blocked with 1% bovine serum albumin solution (1% BSA in PBS-T) and incubated with primary antibody overnight at 4° C. After washing with PBS, the secondary antibody was treated for 1 hour. Afterwards, the myotubes were counterstained with 1 μM DAPI in PBS. Fluorescence images of stained myotubes in five different areas were obtained using a DMI 3000 B microscope (Leica, Germany) and analyzed using ImageJ 1.52 software (National Institutes of Health, Bethesda, MD, USA). Myotubes were classified as myosin heavy chain positive cells containing four or more nuclei, and the diameter of muscle fibers containing four or more nuclei was measured.

aged C57BL/6J mice = experiment: Sarcopenia model using aging mice; assay type: in vivo, mouse
Protocol: Male C57BL/6J mice over 21 months of age were divided into 2 groups of 5 and treated with drugs as follows: 1) 0.5% carboxyl methyl with 6.73% DMSO (Vehicle group) and 2) 50 mg/kg of malotilate (at a concentration of 50 mg/kg, 0.5% carboxyl methyl with 6.73% DMSO) (Malotilate group). Those were administered orally daily for 4 weeks. Afterwards, the function and condition of the muscles were analyzed.
Grip strength was measured with the BIO-GS3 grip strength test meter (Bioseb, FL, USA). Grip strength was measured by placing the mouse on a grid and gently pulling it back with all four paws until the mouse fell off the grid. The trials were conducted with a time interval of 30 seconds, and the largest value among the three trials was selected as the representative muscle strength.
Muscle fatigue was measured from two different models using Rotarod (Ugo Basile, Italy). One is a constant speed model that measures how long movement can be continued on a cylinder rotating at a constant speed, and the other model is an acceleration model that measures how fast the mouse can continue movement when the speed of the cylinder increases at regular intervals. Mice were trained to adapt from 5 rpm to 15 rpm one day before measurement in the above two models.
Before sacrifice, mice were anesthetized by intraperitoneally administering 22 mg/kg Ketamine (Yuhan, Republic of Korea) and 10 mg/kg xylazine (Bayer, Republic of Korea) by IP injection, and then samples were collected. Quadriceps, gastrocnemius, tibialis anterior and soleus muscles were sampled and their weights were measured. The muscles sampled for immunohistostaining were cultured overnight at 4° C. with 4% paraformaldehyde, fixed, embedded in paraffin solution, and stored at −80° C. Cutting and hematoxylin & eosin staining were carried out at the Animal Research Facility of the Gwangju Institute of Science and Technology, Republic of Korea. Hematoxylin & eosin staining was performed using the kit (Merck, Germany). The cross-sectional area of muscle fibers was measured using ImageJ 1.48 software (National Institutes of Health, USA).
Immunohistochemical staining was performed using myosin heavy chain types 2A and 2B (DSHB, IA, USA) and anti-laminin antibody (Abcam, Cambirdge, UK). Counterstain was stained with 1 μM DAPI solution. The cross-sectional area of muscle fibers was visualized using LEICA DM 2500 (Leica, Germany) and then measured using ImageJ 1.48 software (National Institutes of Health, USA).

[2] = aged mice, 50 mg/kg orally daily, 4 weeks

Structure (SMILES): CC(C)OC(=O)C(C(=O)OC(C)C)=C1SC=CS1 [malotilate, Malotilate]
- diameter of muscle fibers (C2C12 myotubes) ([1]; zileuton 10 µM, wedelolactone 20 μM (FIGS. 2, 3)): recovered
- myotube atrophy in Dex-treated myotubes ([1]; C2C12 myotubes): inhibited the effect of Dex on myotube atrophy
- grip strength (aged C57BL/6J mice; [2]): significantly increased
- mean latency to fall (aged C57BL/6J mice; [2]): increased in malotilate-treated mice but did not reach statistical significance
- quadriceps muscle mass (aged C57BL/6J mice; [2]): significantly increased
- soleus muscle mass (aged C57BL/6J mice; [2]): significantly increased
- CSA of fast twitch fibers (types IIA and IIB) (aged C57BL/6J mice; aged mice, immunohistology): preserves
- average muscle fiber cross-sectional area (aged C57BL/6J mice; aged mice, quadriceps): increased
- proportion of large myofibers (>5000 μm^2) (aged C57BL/6J mice; aged mice, quadriceps): much larger proportion
- skeletal muscle atrophy (aged C57BL/6J mice; animal model of sarcopenia due to aging): inhibited
